Experimental data: patent publication US11124513B2, “Avibactam free acid” (Sandoz AG, priority 2016, dated 2021)
Where a name gives a salt, the structure may show the parent alone.

Columns and labels:
[1] = Stability against temperature stress (dehydration, form conversion); type: physicochemical
[2] = stated in WO 2011/042560 A1 (page 17); cited from earlier work
[3] = stated in WO 2011/042560 A1; cited from earlier work
[4] = Thermogravimetric analysis; type: physicochemical; details: up to a temperature of about 130° C.; 10 K/min; crystalline Form 1 (FIG. 4)
Method: Thermogravimetric analysis (TGA) was performed on a Mettler TGA/DSC 1 instrument. The sample (6.30 mg) was heated in a 100 microL aluminum pan closed with an aluminum lid. The lid was automatically pierced at the beginning of the measurement. The sample was heated from 25 to 200° C. at a rate of 10 K/min. Nitrogen (purge rate 50 mL/min) was used as purge gas.

bacteria = details: at clinically relevant doses; reported; cited from earlier work
[5] = Differential scanning calorimetry; type: physicochemical; details: 10 K/min; crystalline Form 1 (FIG. 3)
Method: Differential scanning calorimetry was performed on a Mettler Toledo Polymer DSC R instrument. The sample (1.27 mg) was heated in a 40 microL aluminium pan with pierced aluminium lid from 25 to 160° C. at a rate of 10 K/min. Nitrogen (purge rate 50 mL/min) was used as purge gas.

[6] = Stability against moisture / hygroscopicity

SMILES	behaviour under temperature stress [1]	tendency to lose water and hydrolyze [2]	relative humidity above which the form is particularly stable [3] [%]	temperature above which the form dehydrates (to monohydrate form A) ([1]; temperature stress)	weight loss, thermogravimetric analysis [4]	antibacterial activity of its own (bacteria)	temperature up to which no thermal event is seen in the differential scanning calorimetry curve [5]	hygroscopicity [6]	stability against moisture ([6]; increased relative humidity levels)
NC(=O)C1CCC2CN1C(=O)N2OS(=O)(=O)[O-].O.[Na+] (stereo not shown) [form A]	dehydrates to the anhydrous form B	–	–	–	–	–	–	–	–
NC(=O)[C@@H]1CC[C@@H]2CN1C(=O)N2OS(=O)(=O)[O-].O.O.[Na+] [form E]	–	tends to lose water and to hydrolyze	> 70	above 60 °C	–	–	–	–	–
NC(=O)[C@@H]1CC[C@@H]2CN1C(=O)N2OS(=O)(=O)O [avibactam free acid, [(2S,5R)-2-carbamoyl-7-oxo-1,6-diazabicylco[3.2.1]octan-6-yl] hydrogen sulfate]	very stable against temperature stress	–	–	–	about 0.3 weight %	no antibacterial activity at clinically relevant doses	at least 130 °C	low hygroscopicity	very stable against moisture
